# Test results: ChEMBL document CHEMBL1201862, “PubChem BioAssay data set” (2004)
# “And” between values parts separate entries of the source, which are not always exact repeats. Identical values can stand only once.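 Growth conditions: 96-well plates. Treatment: test compound, 48 hours, 5 concentrations. Analysis: linear interpolation between bracketing concentrations; unreached endpoints set to highest concentration. GI50: concentration for 50% inhibition of growth.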 The source made the active and inactive calls. Rule as the data show it: active = GI50 up to about 1.1 µM and inactive = higher. Starred links: 1 amine or outer side, 2 acyl side, 3 side chain; linkers in the order of their positions; H or OH if unused. Positions of bridges follow the written chain, without caps; N, C: chain ends. Non-standard residues stand in square brackets, D forms with d. Residues, ends and D or L forms follow the SMILES beside them. Chains are numbered I, II in the order given. Actinocin(9to1) = Cc1c2oc3c(C)ccc(C(=O)[*:1])c3nc-2c(C(=O)[*:2])c(N)c1=O; NMeT = CN[CH](C(=O)O)[CH](C)O; Sar = CNCC(=O)O
# How the values were obtained:
# Test in all cases: inhibition of tumour cell growth, NCI panel, 48 h
# SF-268 = tested on: SF-268
# HOP-62 = tested on: HOP-62
# U-251 = tested on: U-251
# SK-MEL-5 = tested on: SK-MEL-5
# HCC 2998 = tested on: HCC 2998
# DU-145 = tested on: DU-145
# T47D = tested on: T47D
# COLO 205 = tested on: COLO 205
# CCRF-CEM = tested on: CCRF-CEM
# HL-60 = tested on: HL-60
# UACC-257 = tested on: UACC-257
# ACHN = tested on: ACHN
# MDA-MB-435 = tested on: MDA-MB-435
# Malme-3M = tested on: Malme-3M
# UACC-62 = tested on: UACC-62
# SF-295 = tested on: SF-295
# SK-MEL-28 = tested on: SK-MEL-28
# OVCAR-3 = tested on: OVCAR-3
# NCI/ADR-RES = tested on: NCI/ADR-RES
# LOX IMVI = tested on: LOX IMVI
# A549 = tested on: A549
# MOLT-4 = tested on: MOLT-4
# OVCAR-5 = tested on: OVCAR-5
# HCT-15 = tested on: HCT-15
# RXF 393 = tested on: RXF 393
# A498 = tested on: A498
# UO-31 = tested on: UO-31
# 786-0 = tested on: 786-0
# RPMI-8226 = tested on: RPMI-8226
# K562 = tested on: K562
# MCF7 = tested on: MCF7
# SF-539 = tested on: SF-539
# KM12 = tested on: KM12
# SR = tested on: SR
# NCI-H23 = tested on: NCI-H23
# EKVX = tested on: EKVX
# IGROV-1 = tested on: IGROV-1
# SK-MEL-2 = tested on: SK-MEL-2
# SW-620 = tested on: SW-620
# HOP-92 = tested on: HOP-92
# NCI-H522 = tested on: NCI-H522
# MDA-N = tested on: MDA-N
# HT-29 = tested on: HT-29
# TK-10 = tested on: TK-10
# NCI-H226 = tested on: NCI-H226
# SNB-19 = tested on: SNB-19
# MDA-MB-231 = tested on: MDA-MB-231
# Hs-578T = tested on: Hs-578T
# HCT-116 = tested on: HCT-116
# SN12C = tested on: SN12C
# SNB-75 = tested on: SNB-75
# OVCAR-8 = tested on: OVCAR-8
# OVCAR-4 = tested on: OVCAR-4
# M14 = tested on: M14
# NCI-H460 = tested on: NCI-H460
structure (smiles),measurement,setting,value
COc1cc2cc(C(=O)N3CC(COS(C)(=O)=O)c4ccc(O)cc43)[nH]c2c(OC)c1OC (stereo unspecified),GI50,SF-268,< 0.1 nM (active)
same,GI50,HOP-62,< 0.1 nM (active)
same,GI50,U-251,< 0.1 nM (active)
same,GI50,SK-MEL-5,< 0.1 nM (active)
same,GI50,HCC 2998,< 0.1 nM (active)
same,GI50,DU-145,< 0.1 nM (active)
same,GI50,T47D,0.552 nM (active)
same,GI50,COLO 205,0.432 nM (active)
same,GI50,CCRF-CEM,< 10 nM (active)
same,GI50,HL-60,< 0.1 nM (active)
same,GI50,UACC-257,0.537 nM (active)
same,GI50,ACHN,< 0.1 nM (active)
same,GI50,MDA-MB-435,< 0.1 nM (active)
same,GI50,Malme-3M,< 0.1 nM (active)
same,GI50,UACC-62,< 0.1 nM (active)
same,GI50,SF-295,< 0.1 nM (active)
same,GI50,SK-MEL-28,< 0.1 nM (active)
same,GI50,OVCAR-3,< 0.1 nM (active)
same,GI50,NCI/ADR-RES,< 0.1 nM (active)
same,GI50,LOX IMVI,< 0.1 nM (active)
same,GI50,A549,< 0.1 nM (active)
same,GI50,MOLT-4,< 0.1 nM (active)
same,GI50,OVCAR-5,0.536 nM (active)
same,GI50,HCT-15,< 0.1 nM
same,GI50,RXF 393,< 0.1 nM (active)
same,GI50,A498,< 10 nM (active)
same,GI50,UO-31,< 0.1 nM (active)
same,GI50,786-0,< 0.1 nM (active)
same,GI50,RPMI-8226,< 0.1 nM (active)
same,GI50,K562,< 0.1 nM (active)
same,GI50,MCF7,< 0.1 nM (active)
same,GI50,SF-539,< 0.1 nM (active)
same,GI50,KM12,0.169 nM (active)
same,GI50,SR,< 0.1 nM (active)
same,GI50,NCI-H23,< 0.1 nM (active)
same,GI50,EKVX,0.82 nM (active)
same,GI50,IGROV-1,0.158 nM (active)
same,GI50,SK-MEL-2,< 0.1 nM (active)
same,GI50,SW-620,< 0.1 nM (active)
same,GI50,HOP-92,< 0.1 nM (active)
same,GI50,NCI-H522,< 0.1 nM (active)
same,GI50,MDA-N,< 10 nM (active)
same,GI50,HT-29,< 0.1 nM (active)
same,GI50,TK-10,0.301 nM (active)
same,GI50,NCI-H226,0.109 nM (active)
same,GI50,SNB-19,< 0.1 nM (active)
same,GI50,MDA-MB-231,< 0.1 nM (active)
same,GI50,Hs-578T,0.168 nM (active)
same,GI50,HCT-116,< 0.1 nM (active)
same,GI50,SN12C,< 0.1 nM (active)
same,GI50,SNB-75,0.172 nM (active)
same,GI50,OVCAR-8,< 0.1 nM (active)
same,GI50,OVCAR-4,< 0.1 nM (active)
same,GI50,M14,< 0.1 nM (active)
"Cc1c2oc3c(C)ccc(C(=O)NC4C(=O)NC(C(C)C)C(=O)N5CCCC5C(=O)N(C)CC(=O)N(C)C(C(C)O)C(=O)OC4C)c3nc-2c(C(=O)NC2C(=O)NC(C(C)C)C(=O)N3CCCC3C(=O)N(C)CC(=O)N(C)C(C(C)O)C(=O)OC2C)c(N)c1=O (stereo unspecified) (I: TVP[Sar][NMeT] / II: TVP[Sar][NMeT]; ester I:1-I:C, II:1-II:C; linker I:N-II:N via Actinocin(9to1); configuration not given here)",GI50,SF-268,> 1 µM (active) and 1.63 µM (inactive)
same,GI50,HOP-62,1.18 µM (inactive) and 792 nM (active)
same,GI50,U-251,495 nM (active) and 369 nM (active)
same,GI50,CCRF-CEM,1.59 µM (inactive) and 957 nM (active)
same,GI50,NCI-H460,470 nM (active) and 401 nM (active)
same,GI50,ACHN,1690 nM (inactive)
same,GI50,UACC-62,478 nM (active)
same,GI50,SK-MEL-28,583 nM (active) and 769 nM (active)
same,GI50,LOX IMVI,565 nM (active) and 557 nM (active)
same,GI50,MOLT-4,> 1 µM (active) and 875 nM (active)
same,GI50,RXF 393,453 nM (active) and 820 nM (active)
same,GI50,RPMI-8226,773 nM (active)
same,GI50,K562,586 nM (active)
same,GI50,MCF7,445 nM (active) and 671 nM (active)
same,GI50,SF-539,518 nM (active) and 533 nM (active)
same,GI50,NCI-H23,> 1 µM (active) and 1.41 µM (inactive)
same,GI50,IGROV-1,512 nM (active) and 914 nM (active)
same,GI50,SK-MEL-2,719 nM (active)
same,GI50,SW-620,> 1 µM (active) and 834 nM (active)
same,GI50,HOP-92,> 1 µM (active) and 1.9 µM (inactive)
same,GI50,NCI-H522,173 nM (active) and 255 nM (active)
same,GI50,MDA-N,1680 nM (inactive)
same,GI50,Hs-578T,1460 nM (inactive)
same,GI50,HCT-116,556 nM (active) and 472 nM (active)
same,GI50,SN12C,> 1 µM (active) and 1.26 µM (inactive)
same,GI50,SNB-75,313 nM (active) and 186 nM (active)
same,GI50,OVCAR-8,1100 nM (active)
